Measured values taken from patent publication US8207176B2 (Glaxo Group Limited, priority 2005, dated 2012).

How the values were obtained:
[1] = molecular target: T1, Recombinant human p38α (MKK6-activated) (Homo sapiens, UniProt Q16539); experiment: Time-resolved fluorescence resonance energy transfer (TR-FRET) kinase assay (standard or low volume); assay type: biochemical; parameters: key: Compounds are considered active in this assay if they demonstrate a pIC50 of greater than 4.6 up to about a pIC50 of greater than 10.0; details: MKK6-activated p38α 100 pM, GST-ATF2 400 nM, 120 minutes at room temperature; either assay format
T1 construct: His; made in house
Description: It is noted that there are two assay formats shown above for the Fluorescence anisotropy kinase binding assay. The only difference between these two assays is the volume used and the plate type. […] The results described herein may have been performed in either assay format and are not differentiated as to which. […] TR-FRET Assay Time-Resolved Fluorescence Resonance Energy Transfer Kinase Standard Assay Recombinant human p38α was expressed as a His-tagged protein. To activate this protein, 3 μM unactivated p38α was incubated in 200 mM Hepes pH 7.4, 625 mM NaCl, 1 mM DTT with 27 nM active MKK6 (Upstate), 1 mM ATP and 10 mM MgCl2 The activity of the MKK6-activated p38α was assessed using a time-resolved fluorescence resonance energy transfer (TR-FRET) assay. Biotinylated-GST-ATF2 (residues 19-96, 400 nM final), ATP ([…]) and MgCl2 (5 mM final) in assay buffer (40 mM HEPES pH 7.4, 1 mM DTT) were added to wells containing 1 ul of various concentrations of compound or DMSO vehicle (3% final) in NUNC 384 well black plate. The reaction was initiated by the addition of MKK6-activated p38 (100 pM final) to give a total volume of 30 ul. The reaction was incubated for 120 minutes at room temperature, then terminated by the addition of 15 μl of 100 mM EDTA pH 7.4. Detection reagent (15 μl) in buffer (100 mM HEPES pH 7.4, 150 mM NaCl, 0.1% w/v BSA, 1 mM DTT) containing antiphosphothreonine-ATF2-71 polyclonal antibody (Cell Signalling Technology, Beverly Mass., USA) labelled with W-1024 europium chelate (Wallac OY, Turku, Finland), and APC-labelled streptavidin (Prozyme, San Leandro, Calif., USA) was added and the reaction was further incubated for 60 minutes at room temperature. The degree of phosphorylation of GST-ATF2 was measured using a Packard Discovery plate reader (Perkin-Elmer Life Sciences, Pangbourne, UK) as a ratio of specific 665 nm energy transfer signal to reference europium 620 nm signal. Time-Resolved Fluorescence Resonance Energy Transfer Kinase Low Volume Assay Recombinant human p38α was expressed as a His-tagged protein. To activate this protein, 3 μM unactivated p38α was incubated in 200 mM Hepes pH7.4, 625 mM NaCl, 1 mM DTT with 27 nM active MKK6 (Upstate), 1 mM ATP and 10 mM MgCl2 The activity of the MKK6-activated p38α was assessed using a time-resolved fluorescence resonance energy transfer (TR-FRET) assay. Biotinylated-GST-ATF2 (residues 19-96, 400 nM final), ATP (125 μM final) and MgCl2 ([…]) in assay buffer (40 mM HEPES pH 7.4, 1 mM DTT) were added to wells containing 0.1 μl of various concentrations of compound or DMSO vehicle (1.7% final) in Greiner low volume 384 well black plate. The reaction was initiated by the addition of MKK6-activated p38α (100 pM final) to give a total volume of 6 μl. The reaction was incubated for 120 minutes at room temperature, then terminated by the addition of 3 μl of detection reagent in buffer (100 mM HEPES pH 7.4, 150 mM NaCl, 0.1% w/v BSA, 1 mM DTT, 100 mM EDTA) containing antiphosphothreonine-ATF2-71 polyclonal antibody (Cell Signalling Technology, Beverly Mass., USA) labelled with W-1024 europium chelate (Wallac OY, Turku, Finland), and APC-labelled streptavidin (Prozyme, San Leandro, Calif., USA). The reaction was further incubated for 60 minutes at room temperature. The degree of phosphorylation of GST-ATF2 was measured using a BMG Rubystar plate reader (BMG, UK) as a ratio of specific 665 nm energy transfer signal to reference europium 620 nm signal. It is noted that there are two assay formats shown above for the Time-resolved fluorescence resonance energy transfer kinase assay. The only difference between these two assays is the volume used and the plate type. […] The results described herein may have been performed in either assay format and are not differentiated as to which. […] For purposes herein the HTRF assay and the Fluorescence anisotropy kinase binding assay: […]

[2] = test system: influx of neutrophils to the lung in LPS-challenged rats; experiment: Rat LPS neutrophilia model; assay type: in vivo; details: intratracheal, LPS aerosol 100 ug/ml 15 min, lavage 4 hours later, in at least one of the range of conditions tested, significant p<0.05, nonsignificant p>0.05
How it was run: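 Compound was given intratracheally (200 ul, suspension or dry powder) 15 min–24 hours before a 15 min aerosol of LPS (100 ug/ml). Bronchoalveolar lavage was taken 4 hours after challenge for differential cell counts. Values are % inhibition of neutrophils versus no-compound controls at a given concentration and pretreat time.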

[3] = test system: synthesis of IL-6, IL-8, GM-CSF, RANTES and COX-2; details: a number of different cell types; cited from earlier work
[4] = test system: TGF-β-induced increases in fibronectin and thrombospondin; details: cited from earlier work

T1 sequence (Q16539 whole entry): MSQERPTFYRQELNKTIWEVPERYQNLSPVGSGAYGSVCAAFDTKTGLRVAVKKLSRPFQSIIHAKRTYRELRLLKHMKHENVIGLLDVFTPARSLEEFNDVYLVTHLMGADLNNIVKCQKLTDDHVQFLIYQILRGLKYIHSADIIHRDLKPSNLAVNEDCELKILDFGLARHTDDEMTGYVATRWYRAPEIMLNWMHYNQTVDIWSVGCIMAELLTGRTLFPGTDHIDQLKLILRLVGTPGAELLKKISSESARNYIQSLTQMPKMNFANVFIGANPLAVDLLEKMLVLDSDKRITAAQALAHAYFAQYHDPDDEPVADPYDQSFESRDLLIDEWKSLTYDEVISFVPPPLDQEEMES

SMILES | melting point | inhibition of neutrophilia (neutrophil levels in lung lavage relative to no compound controls) [2] | further results
Cc1c(F)cc(C(=O)NC2CC2)cc1-c1nc(NC(CO)CO)nc2c1ccc(=O)n2-c1c(F)cccc1F [18(e)] | 214.2 to 217.5 °C |  | pIC50, reported as active [1]: active
CCCNC(=O)c1ccc(C)c(-c2nc(N(C)CCCN(C)C)nc3c2ccc(=O)n3-c2c(F)cccc2F)c1 [Example 104, 3-{8-(2,6-difluorophenyl)-2-[[3-(dimethylamino)propyl](methyl)amino]-7-oxo-7,8-dihydropyrido[2,3-d]pyrimidin-4-yl}-4-methyl-N-propylbenzamide] | 104 to 109 °C | statistically significant inhibition | 
Cc1ccc(NC(=O)c2ccsc2)cc1-c1nc(N2CCC(N)CC2)nc2c1ccc(=O)n2-c1c(F)cccc1F [Example 32, N-{3-[2-(4-amino-1-piperidinyl)-8-(2,6-difluorophenyl)-7-oxo-7,8-dihydropyrido[2,3-d]pyrimidin-4-yl]-4-methylphenyl}-3-thiophenecarboxamide] | 183.8 to 187.9 °C | statistically nonsignificant inhibition | 
C[S+]([O-])c1ccc(-c2nc(-c3ccncc3)c(-c3ccc(F)cc3)[nH]2)cc1 (centres unmarked) [SB-203580] |  |  | decreasing the synthesis of pro-inflammatory proteins including IL-6, IL-8, GM-CSF, RANTES and COX-2 [3]: effective
CCCNC(=O)c1ccc(C)c(-c2nc(NCCN(C)C)nc3c2ccc(=O)n3-c2c(F)cccc2F)c1 [Example 105, 3-(8-(2,6-difluorophenyl)-2-{[2-(dimethylamino)ethyl]amino}-7-oxo-7,8-dihydropyrido[2,3-d]pyrimidin-4-yl)-4-methyl-N-propylbenzamide] | 139 to 142 °C | statistically significant inhibition | 
COc1nccc(-c2c(-c3ccc(F)cc3)ncn2C2CCNCC2)n1 [SB-242235] |  |  | effect on TGF-β-induced increases in fibronectin and thrombospondin [4]: inhibited
Cc1ccc(C(=O)NC2CC2)cc1-c1nc(NCCN(C)C)nc2c1ccc(=O)n2-c1c(F)cccc1F [Example 25] | 214.7 to 217.5 °C | statistically nonsignificant inhibition | 
CCCNC(=O)c1ccc(C)c(-c2nc(NCCN(C)C(=O)OC(C)(C)C)nc3c2ccc(=O)n3-c2c(F)cccc2F)c1 [Example 106, 1,1-dimethylethyl {2-[(8-(2,6-difluorophenyl)-4-{2-methyl-5-[(propylamino)carbonyl]phenyl}-7-oxo-7,8-dihydro-pyrido[2,3-d]pyrimidin-2-yl)amino]ethyl}methylcarbamate] | 115 to 118 °C |  | 
CCCNCCNc1nc(-c2cc(C(=O)NC3CC3)ccc2C)c2ccc(=O)n(-c3c(F)cccc3F)c2n1 [Example 24, N-cyclopropyl-3-(8-(2,6-difluorophenyl)-7-oxo-2-{[2-(propylamino)ethyl]amino}-7,8-dihydropyrido[2,3-d]pyrimidin-4-yl)-4-methylbenzamide] | 120 to 134 °C | statistically nonsignificant inhibition | 
Cc1ccc(C(=O)NC2CC2)cc1-c1nc(NC2CC(C)(C)NC(C)(C)C2)nc2c1ccc(=O)n2-c1c(F)cccc1F [21(c)] | 326.3 to 327.9 °C |  | 
Fc1ccc(-c2nc3n(c2-c2ccncc2)CCS3)cc1 [SK&F 86002] |  |  | decreasing the synthesis of pro-inflammatory proteins including IL-6, IL-8, GM-CSF, RANTES and COX-2 [3]: effective
